Laboratory results taken from US11547697B2, “Heterocyclic compounds and uses thereof” (MILLENNIUM PHARMACEUTICALS, INC., priority 2009, dated 2023).
pIC50: −log10 of the molar value.

What was measured:
Format in all cases: biochemical
[1] = biological target: p110β/p85α (Homo sapiens (Human), UniProt P42338); assay: PI 3-Kinase (human) HTRF assay, p110β/p85α; conditions: in vitro; read-out: PI3K β IC50
Description: (§1) An exemplary system is PI 3-Kinase (human) HTRF™ Assay from Upstate. […] Briefly, the assay is a time resolved FRET assay that indirectly measures PIP3 product formed by the activity of a PI3-K. The kinase reaction is performed in a microtitre plate (e.g., a 384 well microtitre plate). The total reaction volume is approximately 20 ul per well. In the first step, each well receives 2 ul of test compound in 20% dimethylsulphoxide resulting in a 2% DMSO final concentration. Next, approximately 14.5 ul of a kinase/PIP2 mixture (diluted in 1× reaction buffer) is added per well for a final concentration of 0.25-0.3 ug/ml kinase and 10 μM PIP2. The plate is sealed and incubated for 15 minutes at room temperature. To start the reaction, 3.5 ul of ATP (diluted in 1× reaction buffer) is added per well for a final concentration of 10 μM ATP. The plate is sealed and incubated for 1 hour at room temperature. The reaction is stopped by adding 5 ul of Stop Solution per well and then 5 ul of Detection Mix is added per well. The plate is sealed, incubated for 1 hour at room temperature, and then read on an appropriate plate reader. Data is analyzed and IC50s are generated using GraphPad Prism 5. […] For PI3K α, β, δ, and γ, the nM concentration of inhibitor to reach IC50 is provided.

[2] = biological target: p110γ (Homo sapiens (Human), UniProt P48736); assay: PI 3-Kinase (human) HTRF assay, p110γ; conditions: in vitro; read-out: PI3K γ IC50
[3] = biological target: p110δ/p85α (Homo sapiens (Human), UniProt O00329); assay: PI 3-Kinase (human) HTRF assay, p110δ/p85α; conditions: in vitro; read-out: PI3K δ IC50
Description: as §1

[4] = biological target: p110α/p85α (Homo sapiens (Human), UniProt P42336); assay: PI 3-Kinase (human) HTRF assay, p110α/p85α; conditions: in vitro; read-out: PI3K α IC50
Chain of p110α/p85α (P42336 whole entry): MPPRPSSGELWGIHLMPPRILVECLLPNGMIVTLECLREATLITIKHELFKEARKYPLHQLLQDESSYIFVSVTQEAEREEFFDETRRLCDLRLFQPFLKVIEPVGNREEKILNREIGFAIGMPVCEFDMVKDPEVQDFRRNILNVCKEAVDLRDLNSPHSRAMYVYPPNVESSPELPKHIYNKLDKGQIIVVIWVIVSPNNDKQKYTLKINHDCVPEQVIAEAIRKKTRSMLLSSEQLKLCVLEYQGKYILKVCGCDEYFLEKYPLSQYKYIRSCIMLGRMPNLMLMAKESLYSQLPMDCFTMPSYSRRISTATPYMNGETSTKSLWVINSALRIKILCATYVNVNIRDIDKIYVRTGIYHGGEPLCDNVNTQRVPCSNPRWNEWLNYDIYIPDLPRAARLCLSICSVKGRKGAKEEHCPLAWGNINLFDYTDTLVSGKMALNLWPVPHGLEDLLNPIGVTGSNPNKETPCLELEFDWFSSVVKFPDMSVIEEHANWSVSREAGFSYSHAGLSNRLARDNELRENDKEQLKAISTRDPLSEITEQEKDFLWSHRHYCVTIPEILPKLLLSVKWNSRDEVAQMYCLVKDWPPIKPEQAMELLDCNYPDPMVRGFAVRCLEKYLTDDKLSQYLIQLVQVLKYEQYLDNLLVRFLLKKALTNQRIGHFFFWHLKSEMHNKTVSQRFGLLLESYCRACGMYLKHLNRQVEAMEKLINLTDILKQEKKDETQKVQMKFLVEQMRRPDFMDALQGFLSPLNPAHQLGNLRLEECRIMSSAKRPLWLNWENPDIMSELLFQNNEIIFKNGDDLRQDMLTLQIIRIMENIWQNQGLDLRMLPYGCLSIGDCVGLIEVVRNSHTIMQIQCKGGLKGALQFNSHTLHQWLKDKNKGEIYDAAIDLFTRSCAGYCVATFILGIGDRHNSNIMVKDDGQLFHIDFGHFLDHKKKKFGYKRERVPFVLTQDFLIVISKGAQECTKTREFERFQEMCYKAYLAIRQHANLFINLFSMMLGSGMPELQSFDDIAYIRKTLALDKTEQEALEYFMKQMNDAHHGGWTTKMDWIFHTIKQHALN
Chain of p110α/p85α (P27986 whole entry partner): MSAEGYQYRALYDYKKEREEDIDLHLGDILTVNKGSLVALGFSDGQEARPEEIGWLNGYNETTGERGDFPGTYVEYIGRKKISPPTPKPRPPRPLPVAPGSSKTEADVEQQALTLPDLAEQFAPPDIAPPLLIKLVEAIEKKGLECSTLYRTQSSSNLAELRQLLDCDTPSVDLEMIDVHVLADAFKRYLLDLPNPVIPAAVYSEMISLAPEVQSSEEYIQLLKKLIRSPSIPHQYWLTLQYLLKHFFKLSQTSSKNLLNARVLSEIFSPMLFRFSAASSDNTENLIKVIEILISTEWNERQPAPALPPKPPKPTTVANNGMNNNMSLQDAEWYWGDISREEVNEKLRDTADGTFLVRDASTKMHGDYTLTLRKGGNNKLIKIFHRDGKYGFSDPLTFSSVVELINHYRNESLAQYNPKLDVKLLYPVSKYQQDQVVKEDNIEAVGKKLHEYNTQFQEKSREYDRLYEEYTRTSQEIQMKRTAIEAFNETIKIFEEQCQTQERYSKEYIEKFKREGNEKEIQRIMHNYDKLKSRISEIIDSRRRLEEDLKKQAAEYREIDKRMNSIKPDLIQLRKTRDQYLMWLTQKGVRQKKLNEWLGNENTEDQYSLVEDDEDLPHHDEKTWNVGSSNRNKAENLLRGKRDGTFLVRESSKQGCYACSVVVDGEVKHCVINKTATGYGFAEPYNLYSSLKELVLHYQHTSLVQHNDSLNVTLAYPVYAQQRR

Chain of p110β/p85α (P42338 whole entry): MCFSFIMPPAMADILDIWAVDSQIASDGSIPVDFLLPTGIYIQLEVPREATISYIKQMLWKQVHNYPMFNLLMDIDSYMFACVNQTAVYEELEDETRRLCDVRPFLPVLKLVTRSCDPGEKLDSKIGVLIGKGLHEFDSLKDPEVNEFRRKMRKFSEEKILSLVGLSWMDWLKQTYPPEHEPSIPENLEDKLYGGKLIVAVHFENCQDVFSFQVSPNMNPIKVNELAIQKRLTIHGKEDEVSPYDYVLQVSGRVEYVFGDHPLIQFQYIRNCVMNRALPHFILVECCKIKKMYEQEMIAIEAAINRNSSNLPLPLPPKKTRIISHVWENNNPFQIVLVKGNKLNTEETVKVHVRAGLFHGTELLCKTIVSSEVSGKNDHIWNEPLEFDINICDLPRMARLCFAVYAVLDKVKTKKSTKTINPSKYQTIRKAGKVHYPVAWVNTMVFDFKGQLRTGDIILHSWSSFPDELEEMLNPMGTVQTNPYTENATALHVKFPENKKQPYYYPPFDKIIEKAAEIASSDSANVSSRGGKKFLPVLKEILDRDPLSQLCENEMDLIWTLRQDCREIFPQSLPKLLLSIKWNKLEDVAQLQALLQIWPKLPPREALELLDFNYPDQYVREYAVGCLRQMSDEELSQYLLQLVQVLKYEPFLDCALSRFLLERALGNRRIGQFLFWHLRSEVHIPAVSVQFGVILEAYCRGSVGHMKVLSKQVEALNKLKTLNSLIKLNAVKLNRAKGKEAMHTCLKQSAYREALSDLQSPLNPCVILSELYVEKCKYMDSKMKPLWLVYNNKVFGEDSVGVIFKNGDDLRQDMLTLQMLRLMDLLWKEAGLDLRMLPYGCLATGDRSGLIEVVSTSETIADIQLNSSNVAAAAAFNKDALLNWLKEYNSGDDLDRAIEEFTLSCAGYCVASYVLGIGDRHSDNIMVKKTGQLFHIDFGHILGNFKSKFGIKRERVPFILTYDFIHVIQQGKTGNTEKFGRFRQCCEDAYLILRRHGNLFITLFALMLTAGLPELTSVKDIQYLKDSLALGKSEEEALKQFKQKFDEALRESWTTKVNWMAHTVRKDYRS
Chain of p110β/p85α (P27986 whole entry partner): as the sequence (P27986 whole entry partner) above
Chain of p110δ/p85α (O00329 whole entry): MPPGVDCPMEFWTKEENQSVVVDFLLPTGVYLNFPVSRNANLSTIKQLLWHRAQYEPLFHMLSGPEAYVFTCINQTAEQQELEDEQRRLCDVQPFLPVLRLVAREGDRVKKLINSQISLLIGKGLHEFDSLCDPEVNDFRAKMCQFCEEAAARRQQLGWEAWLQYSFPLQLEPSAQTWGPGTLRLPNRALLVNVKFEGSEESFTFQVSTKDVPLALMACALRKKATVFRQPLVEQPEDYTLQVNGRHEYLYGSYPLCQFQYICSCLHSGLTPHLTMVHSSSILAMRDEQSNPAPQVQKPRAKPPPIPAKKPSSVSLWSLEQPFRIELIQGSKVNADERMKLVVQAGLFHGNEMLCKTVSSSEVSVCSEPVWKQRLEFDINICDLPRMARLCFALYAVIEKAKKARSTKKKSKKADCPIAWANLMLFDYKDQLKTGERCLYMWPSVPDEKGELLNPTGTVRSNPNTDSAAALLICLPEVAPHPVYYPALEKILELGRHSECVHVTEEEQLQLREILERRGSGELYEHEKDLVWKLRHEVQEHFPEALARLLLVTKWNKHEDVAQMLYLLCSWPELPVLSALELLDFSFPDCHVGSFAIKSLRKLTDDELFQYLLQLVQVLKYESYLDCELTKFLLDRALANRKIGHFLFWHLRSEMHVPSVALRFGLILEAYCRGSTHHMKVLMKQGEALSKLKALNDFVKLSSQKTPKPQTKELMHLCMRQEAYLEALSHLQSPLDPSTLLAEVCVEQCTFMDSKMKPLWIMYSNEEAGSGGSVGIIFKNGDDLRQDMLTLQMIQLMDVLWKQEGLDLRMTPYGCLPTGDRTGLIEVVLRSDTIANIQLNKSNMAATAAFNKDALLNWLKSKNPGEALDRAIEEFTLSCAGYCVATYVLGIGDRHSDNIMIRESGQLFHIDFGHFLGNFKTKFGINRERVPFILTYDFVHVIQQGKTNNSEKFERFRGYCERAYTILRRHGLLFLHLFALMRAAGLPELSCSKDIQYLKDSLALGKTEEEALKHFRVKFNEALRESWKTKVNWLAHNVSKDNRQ
Chain of p110δ/p85α (P27986 whole entry partner): as the sequence (P27986 whole entry partner) above
Chain of p110γ (P48736 whole entry): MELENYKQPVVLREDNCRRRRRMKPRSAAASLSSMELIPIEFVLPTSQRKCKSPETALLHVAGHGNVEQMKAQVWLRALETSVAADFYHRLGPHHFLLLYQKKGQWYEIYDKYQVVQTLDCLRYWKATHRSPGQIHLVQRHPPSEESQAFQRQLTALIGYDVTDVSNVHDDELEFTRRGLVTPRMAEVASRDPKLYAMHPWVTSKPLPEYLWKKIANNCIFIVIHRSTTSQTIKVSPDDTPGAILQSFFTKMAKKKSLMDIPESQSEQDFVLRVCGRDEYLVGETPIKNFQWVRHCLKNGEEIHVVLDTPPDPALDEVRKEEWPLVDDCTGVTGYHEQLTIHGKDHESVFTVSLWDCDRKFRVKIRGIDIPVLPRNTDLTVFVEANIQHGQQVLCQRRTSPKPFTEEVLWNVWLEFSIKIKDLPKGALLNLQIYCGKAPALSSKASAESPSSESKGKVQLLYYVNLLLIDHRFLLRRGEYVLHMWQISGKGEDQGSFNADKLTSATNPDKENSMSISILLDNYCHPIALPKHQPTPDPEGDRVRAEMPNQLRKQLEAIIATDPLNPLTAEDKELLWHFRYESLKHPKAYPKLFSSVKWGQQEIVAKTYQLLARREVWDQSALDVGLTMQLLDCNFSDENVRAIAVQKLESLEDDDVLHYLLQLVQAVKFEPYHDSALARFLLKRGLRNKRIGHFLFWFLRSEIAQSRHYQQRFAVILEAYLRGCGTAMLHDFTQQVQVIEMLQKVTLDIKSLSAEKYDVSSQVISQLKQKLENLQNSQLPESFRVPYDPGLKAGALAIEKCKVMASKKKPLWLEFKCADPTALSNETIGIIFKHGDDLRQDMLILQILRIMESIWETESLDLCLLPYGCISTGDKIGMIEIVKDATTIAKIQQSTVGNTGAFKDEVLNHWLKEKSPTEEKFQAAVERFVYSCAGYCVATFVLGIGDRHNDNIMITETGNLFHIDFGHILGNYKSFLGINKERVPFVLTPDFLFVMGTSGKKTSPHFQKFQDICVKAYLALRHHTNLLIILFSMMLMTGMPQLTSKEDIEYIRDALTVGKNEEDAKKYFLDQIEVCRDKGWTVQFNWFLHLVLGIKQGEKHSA

SMILES	pIC50 [1]	pIC50 [2]	pIC50 [3]	pIC50 [4]
Cc1ccn(C2CN(c3cnc4ccc(-c5ccc6oc(N)nc6c5)cc4n3)C2)n1 [compound 320]	> 5.00	> 5.00	> 5.00	> 7.00
Nc1nc2cc(-c3ccc4ncc(N5CC(N6CC[C@H](O)C6)C5)nc4c3)ccc2o1 [compound 322]	> 6.00	> 6.00	> 5.00	> 7.00
CN1CCN(C2CN(c3cnc4ccc(-c5ccc6oc(N)nc6c5)cc4n3)C2)CC1=O [compound 323]	> 5.00	> 6.00	> 5.00	> 7.00
CCN(CC)C1CN(c2cnc3ccc(-c4ccc5oc(N)nc5c4)cc3n2)C1 [compound 324]	> 5.00	> 6.00	> 5.00	> 7.00
Nc1nc2cc(-c3ccc4ncc(N5CC(N6CCNC(=O)C6)C5)nc4c3)ccc2o1 [compound 325]	> 6.00	> 7.00	> 5.00	> 7.00
Nc1nc2cc(-c3ccc4ncc(N5CC(N6CCNCC6)C5)nc4c3)ccc2o1 [compound 326]	> 6.00	> 6.00	> 6.00	> 7.00
CC(=O)N1CCN(C2CN(c3cnc4ccc(-c5ccc6oc(N)nc6c5)cc4n3)C2)CC1 [compound 327]	> 5.00	> 6.00	> 6.00	> 7.00
CS(=O)(=O)N1CCN(C2CN(c3cnc4ccc(-c5ccc6oc(N)nc6c5)cc4n3)C2)CC1 [compound 328]	> 5.00	> 5.00	> 5.00	> 7.00
CCN1CCN(C2CN(c3cnc4ccc(-c5ccc6oc(N)nc6c5)cc4n3)C2)CC1 [compound 329]	> 6.00	> 5.00	> 6.00	> 7.00
CC(C)N1CCN(C2CN(c3cnc4ccc(-c5ccc6oc(N)nc6c5)cc4n3)C2)CC1 [compound 331]	> 5.00	> 5.00	> 5.00	> 7.00
C[C@H]1CN(c2cnc3ccc(-c4ccc5oc(N)nc5c4)cc3n2)CCN1C [compound 332]	> 7.00	> 6.00	> 5.00	> 6.00
Cc1cn(C2CN(c3cnc4ccc(-c5ccc6oc(N)nc6c5)cc4n3)C2)cn1 [compound 339]	> 6.00	> 6.00	> 6.00	> 7.00
Cc1nccn1C1CCN(c2cnc3ccc(-c4ccc5oc(N)nc5c4)cc3n2)CC1 [compound 344]	> 5.00	> 5.00	> 6.00	> 7.00
Cc1cc(-c2ccc3oc(N)nc3c2)cc2c(C(=O)N3CCOCC3)cnn12 [compound 357]	> 5.00	> 6.00	> 5.00	> 6.00
Nc1nc2cc(-c3ccc4ncc(N5CC(N6CCOCC6)C5)nc4c3)cc(Cl)c2o1 [compound 358]	> 6.00	> 6.00	> 6.00	> 7.00
Nc1nc2cc(-c3ccc4ncc(C(=O)N5CCOCC5)n4c3)cc(Cl)c2o1 [compound 359]	> 6.00	> 7.00	> 5.00	> 7.00
Nc1nc2cc(-c3ccc4ncc(C(=O)N5CCOCC5)n4c3)cc(F)c2o1 [compound 360]	> 6.00	> 7.00	> 5.00	> 7.00
Nc1nc2cc(-c3ccc4ncc(N5CC(N6CCOCC6)C5)nc4c3)cc(F)c2o1 [compound 361]	> 6.00	> 6.00	> 5.00	> 7.00
Cc1cc(-c2ccc3ncc(N4CC(N5CCOCC5)C4)nc3c2)cc2nc(N)oc12 [compound 365]	> 5.00	> 5.00	> 5.00	> 5.00
Nc1nc2cc(-c3ccc4ncc(N5CC(N)C5)nc4c3)ccc2o1 [compound 367]	> 6.00	> 6.00	> 5.00	> 6.00
Cc1cc(-c2ccc3oc(N)nc3c2)cc2c(C(=O)N3CCCC3)cnn12 [compound 368]	> 5.00	> 6.00	> 6.00	> 7.00
Nc1nc2cc(-c3ccc4ncc(C(=O)N5CCOCC5)n4c3)c(F)cc2o1 [compound 372]	> 5.00	> 5.00	> 5.00	> 6.00
Nc1nc2cc(-c3ccc4ncc(N5CC(N6CCOCC6)C5)nc4c3)c(F)cc2o1 [compound 373]	> 5.00	> 5.00	> 5.00	> 7.00
Nc1nc2cc(-c3ccc4ncc(N5CC[C@H](N6CCOCC6)C5)nc4c3)ccc2o1 [compound 375]	> 5.00	> 6.00	> 6.00	> 6.00
Nc1nc2cc(-c3ccc4ncc(N5CC[C@@H](N6CCOCC6)C5)nc4c3)ccc2o1 [compound 376]	> 5.00	> 7.00	> 5.00	> 7.00
